Laboratory results reported in patent publication US20080103151A9, “Heterocyclic compounds and their uses as therapeutic agents” (Xenon Pharmaceuticals Inc., priority 2005, published 2008).

Key:
[1] = Stability of the isolated solid in the air; assay type: physicochemical; conditions: white solid, turned to red in the air
Experimental: A mixture of 3-hydroxy-3-(6-hydroxy-1,3-benzodioxol-5-yl)-1-pentyl-1,3-dihydro-2H-pyrrolo[3,2-c]pyridin-2-one (0.15 g, 0.42 mmol), triethylsilane (1.60 mL, 10.0 mmol) and trifluroacetic acid (0.74 mL, 10.0 mmol) was stirred at ambient temperature overnight. The mixture was diluted with ethyl acetate (100 mL), washed with water, dried over anhydrous sodium sulfate and filtered. The filtrate was concentrated in vacuo. The residue was triturated with diethyl ether to give the title compound as a white solid (not stable, turned to red in the air): MS (ES+) m/z 341.4 (M+1).

Nav1.4 (CHO-K1 cells) = Nav1.4 (CHO-K1 cells) (Cricetulus griseus, UniProt A0A9J7H6F9); assay type: cell-based, Chinese Hamster
[2] = tested on: Nav1.4 and 1.5 (L6 rat myoblast cell); assay type: cell-based
[3] = target: NaV1.8 (SK-N-BE2C neuroblastoma cell line) (Homo sapiens, UniProt Q9Y5Y9); assay type: cell-based
[4] = target: Nav1.2 (PC12 pheochromocytoma) (Rattus norvegicus, UniProt P04775)
Nav1.2 (PC12 pheochromocytoma), sequence (P04775 whole entry, looked up): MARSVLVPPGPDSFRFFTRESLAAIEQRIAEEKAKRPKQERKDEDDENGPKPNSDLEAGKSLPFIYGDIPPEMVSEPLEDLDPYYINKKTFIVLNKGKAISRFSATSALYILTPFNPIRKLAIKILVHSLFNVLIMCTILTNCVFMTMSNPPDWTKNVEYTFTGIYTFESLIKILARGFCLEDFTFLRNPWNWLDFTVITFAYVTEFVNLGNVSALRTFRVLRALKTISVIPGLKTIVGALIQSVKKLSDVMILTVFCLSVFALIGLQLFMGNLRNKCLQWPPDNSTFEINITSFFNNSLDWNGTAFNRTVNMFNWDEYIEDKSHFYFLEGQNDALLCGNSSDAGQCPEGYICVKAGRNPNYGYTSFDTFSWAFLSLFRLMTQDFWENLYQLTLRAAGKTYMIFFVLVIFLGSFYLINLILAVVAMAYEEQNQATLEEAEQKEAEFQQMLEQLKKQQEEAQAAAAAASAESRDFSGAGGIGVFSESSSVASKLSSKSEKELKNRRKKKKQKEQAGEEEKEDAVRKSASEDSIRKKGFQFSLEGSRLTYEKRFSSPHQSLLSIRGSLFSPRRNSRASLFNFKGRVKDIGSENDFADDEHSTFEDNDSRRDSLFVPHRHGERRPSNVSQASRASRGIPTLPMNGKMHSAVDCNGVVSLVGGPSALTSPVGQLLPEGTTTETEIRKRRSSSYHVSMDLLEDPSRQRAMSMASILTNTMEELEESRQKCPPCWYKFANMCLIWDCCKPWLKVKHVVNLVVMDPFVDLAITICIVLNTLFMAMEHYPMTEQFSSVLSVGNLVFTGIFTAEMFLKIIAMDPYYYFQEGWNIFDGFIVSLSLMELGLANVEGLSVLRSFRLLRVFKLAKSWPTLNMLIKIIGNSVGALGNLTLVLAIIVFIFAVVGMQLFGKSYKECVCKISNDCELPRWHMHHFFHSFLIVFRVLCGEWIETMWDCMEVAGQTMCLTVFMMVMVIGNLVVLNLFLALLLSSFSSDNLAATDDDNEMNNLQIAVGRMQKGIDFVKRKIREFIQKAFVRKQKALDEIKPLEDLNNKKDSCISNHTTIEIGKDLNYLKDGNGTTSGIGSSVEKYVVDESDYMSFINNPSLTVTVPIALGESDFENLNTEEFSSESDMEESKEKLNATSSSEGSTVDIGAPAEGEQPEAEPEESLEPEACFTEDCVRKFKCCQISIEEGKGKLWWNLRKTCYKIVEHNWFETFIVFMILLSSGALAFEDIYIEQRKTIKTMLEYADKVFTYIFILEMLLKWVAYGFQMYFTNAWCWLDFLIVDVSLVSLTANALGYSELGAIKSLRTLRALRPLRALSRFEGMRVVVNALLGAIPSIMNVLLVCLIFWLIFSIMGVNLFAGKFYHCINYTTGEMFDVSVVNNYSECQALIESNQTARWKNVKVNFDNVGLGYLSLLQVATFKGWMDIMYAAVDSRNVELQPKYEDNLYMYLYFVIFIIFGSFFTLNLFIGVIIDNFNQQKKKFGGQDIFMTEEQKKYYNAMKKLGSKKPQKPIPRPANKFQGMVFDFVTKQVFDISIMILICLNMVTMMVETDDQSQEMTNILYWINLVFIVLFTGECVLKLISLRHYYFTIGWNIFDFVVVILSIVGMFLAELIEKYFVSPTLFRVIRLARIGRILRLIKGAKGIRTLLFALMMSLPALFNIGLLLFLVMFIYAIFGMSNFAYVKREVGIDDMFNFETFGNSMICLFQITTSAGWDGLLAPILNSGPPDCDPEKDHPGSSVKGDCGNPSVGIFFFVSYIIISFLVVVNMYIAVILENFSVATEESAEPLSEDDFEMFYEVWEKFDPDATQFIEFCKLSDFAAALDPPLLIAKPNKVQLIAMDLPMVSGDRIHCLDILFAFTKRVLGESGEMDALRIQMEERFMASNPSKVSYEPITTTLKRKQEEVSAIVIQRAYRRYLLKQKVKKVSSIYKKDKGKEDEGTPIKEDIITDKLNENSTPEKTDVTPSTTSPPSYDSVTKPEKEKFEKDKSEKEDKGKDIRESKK

NaV1.8 (SK-N-BE2C neuroblastoma cell line), sequence (Q9Y5Y9 whole entry, looked up): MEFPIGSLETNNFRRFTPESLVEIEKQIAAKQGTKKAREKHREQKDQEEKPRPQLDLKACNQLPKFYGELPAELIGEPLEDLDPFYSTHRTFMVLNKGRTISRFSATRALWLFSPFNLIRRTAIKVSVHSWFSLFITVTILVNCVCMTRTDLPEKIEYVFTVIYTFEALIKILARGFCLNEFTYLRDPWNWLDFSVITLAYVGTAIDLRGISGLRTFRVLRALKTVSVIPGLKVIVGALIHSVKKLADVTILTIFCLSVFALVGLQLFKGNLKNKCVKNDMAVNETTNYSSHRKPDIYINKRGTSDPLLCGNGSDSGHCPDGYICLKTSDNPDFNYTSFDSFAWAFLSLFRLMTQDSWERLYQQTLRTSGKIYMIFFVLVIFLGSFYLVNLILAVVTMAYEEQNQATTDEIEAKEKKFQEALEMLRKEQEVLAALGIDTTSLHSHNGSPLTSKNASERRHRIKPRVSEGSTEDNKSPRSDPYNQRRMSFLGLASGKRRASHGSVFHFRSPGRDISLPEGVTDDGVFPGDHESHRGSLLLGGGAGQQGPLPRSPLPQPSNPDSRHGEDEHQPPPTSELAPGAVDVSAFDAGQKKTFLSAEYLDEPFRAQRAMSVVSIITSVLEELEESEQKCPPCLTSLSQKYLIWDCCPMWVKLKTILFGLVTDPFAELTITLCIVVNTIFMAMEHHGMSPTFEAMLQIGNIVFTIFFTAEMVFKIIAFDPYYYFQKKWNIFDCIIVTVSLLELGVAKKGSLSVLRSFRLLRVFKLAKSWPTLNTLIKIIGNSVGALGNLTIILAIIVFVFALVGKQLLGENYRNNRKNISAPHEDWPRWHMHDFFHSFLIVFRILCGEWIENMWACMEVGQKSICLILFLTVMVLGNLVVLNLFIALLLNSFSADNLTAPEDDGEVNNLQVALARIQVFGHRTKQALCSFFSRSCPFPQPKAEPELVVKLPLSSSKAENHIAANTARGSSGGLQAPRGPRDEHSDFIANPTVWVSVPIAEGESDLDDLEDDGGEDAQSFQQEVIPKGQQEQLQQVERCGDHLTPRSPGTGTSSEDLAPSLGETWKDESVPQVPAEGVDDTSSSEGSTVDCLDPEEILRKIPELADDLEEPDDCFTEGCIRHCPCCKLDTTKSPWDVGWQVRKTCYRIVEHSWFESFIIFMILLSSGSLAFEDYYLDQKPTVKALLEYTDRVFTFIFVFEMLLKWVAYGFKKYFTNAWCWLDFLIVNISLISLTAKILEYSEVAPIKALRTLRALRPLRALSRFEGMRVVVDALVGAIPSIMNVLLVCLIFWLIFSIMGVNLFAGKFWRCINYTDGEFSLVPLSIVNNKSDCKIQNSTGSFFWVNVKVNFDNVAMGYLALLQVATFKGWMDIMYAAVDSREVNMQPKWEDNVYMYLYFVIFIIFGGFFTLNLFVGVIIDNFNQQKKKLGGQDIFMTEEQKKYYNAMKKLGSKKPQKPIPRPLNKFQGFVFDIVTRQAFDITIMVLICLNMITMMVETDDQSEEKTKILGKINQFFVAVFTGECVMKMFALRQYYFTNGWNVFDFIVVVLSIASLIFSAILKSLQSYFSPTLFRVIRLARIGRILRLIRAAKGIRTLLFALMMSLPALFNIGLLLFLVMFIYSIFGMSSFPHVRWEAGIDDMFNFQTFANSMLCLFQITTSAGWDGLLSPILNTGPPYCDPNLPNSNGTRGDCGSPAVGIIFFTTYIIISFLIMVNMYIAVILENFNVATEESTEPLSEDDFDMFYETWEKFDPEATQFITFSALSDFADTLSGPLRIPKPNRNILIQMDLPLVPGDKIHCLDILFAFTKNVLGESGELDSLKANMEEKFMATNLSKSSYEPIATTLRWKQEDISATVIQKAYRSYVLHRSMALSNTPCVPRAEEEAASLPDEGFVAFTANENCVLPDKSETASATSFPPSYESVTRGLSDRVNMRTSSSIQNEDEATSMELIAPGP

CCCCCN1C(=O)C(O)(c2ccc3c(c2)OCO3)c2cccnc21 (centres unmarked)
melting point: 104 to 105 °C

CCCCCN1C(=O)C(O)(c2cc3c(cc2O)OCO3)c2cnccc21 (centres unmarked)
melting point: 193 to 195 °C

CCCCCN1C(=O)C(c2cc3c(cc2O)OCO3)c2cnccc21 (centres unmarked) [Example 10, 3-(6-hydroxy-1,3-benzodioxol-5-yl)-1-pentyl-1,3-dihydro-2H-pyrrolo[3,2-c]pyridin-2-one]
stability of the solid in the air [1]: not stable

CCCCCN1C(=O)C(c2ccc3c(c2)OCO3)c2cccnc21 (centres unmarked) [Example 17, 3-(1,3-benzodioxol-5-yl)-1-pentyl-1,3-dihydro-2H-pyrrolo[2,3-b]pyridin-2-one]
melting point: 75 to 77 °C

NC1=N[C@H](O)[C@H]2[C@H]3O[C@]4(O)O[C@@H]([C@@H](O)[C@@]2(N1)[C@@H]4O)[C@]3(O)CO [TTX, tetrodotoxin]
block of [^14C] Guanidine influx by TTX (Nav1.4 (CHO-K1 cells)): Guanidine influx was completely
block of [^14C] Guanidine influx by TTX [2]: partially blocked by TTX (Nav1.5
block of [^14C] Guanidine influx by TTX [3]: TTX partially blocked influx
block of [^14C] Guanidine influx by TTX [4]: Guanidine influx was completely
